Assay [1] can be described thus: cells. In kind it is functional, cell-based.
The nature of assay [2]: cells. In kind it is functional, cell-based. This is another data set of the same source.
In assay [3] the target is T1, Corticotropin-releasing factor receptor 2/Corticotropin-releasing factor-binding protein (Homo sapiens, UniProt P24387+Q13324).
T1 sequence (Q13324 whole entry): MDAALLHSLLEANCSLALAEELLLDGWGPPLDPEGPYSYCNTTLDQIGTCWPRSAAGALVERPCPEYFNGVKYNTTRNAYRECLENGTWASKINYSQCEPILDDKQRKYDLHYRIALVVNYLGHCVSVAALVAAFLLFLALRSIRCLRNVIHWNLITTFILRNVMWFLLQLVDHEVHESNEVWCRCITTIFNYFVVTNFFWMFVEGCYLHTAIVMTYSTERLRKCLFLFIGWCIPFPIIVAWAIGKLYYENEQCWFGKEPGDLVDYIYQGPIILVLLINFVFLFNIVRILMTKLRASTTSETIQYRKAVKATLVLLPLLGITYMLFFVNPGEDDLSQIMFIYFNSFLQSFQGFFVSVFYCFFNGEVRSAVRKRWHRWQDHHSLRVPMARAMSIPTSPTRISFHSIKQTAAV
T1 sequence (P24387 whole entry): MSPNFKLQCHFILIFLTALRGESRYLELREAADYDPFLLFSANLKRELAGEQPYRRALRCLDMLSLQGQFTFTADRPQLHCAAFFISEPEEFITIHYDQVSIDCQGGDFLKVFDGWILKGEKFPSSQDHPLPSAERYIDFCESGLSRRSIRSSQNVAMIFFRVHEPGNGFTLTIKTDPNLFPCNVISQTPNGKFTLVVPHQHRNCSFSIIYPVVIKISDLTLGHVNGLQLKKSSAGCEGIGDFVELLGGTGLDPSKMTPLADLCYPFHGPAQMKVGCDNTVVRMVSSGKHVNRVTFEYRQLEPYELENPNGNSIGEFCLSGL
Nature of the assay: activators of CRF receptor 2 with binding protein – uHTS hits, confirmation (AID 602473). In kind it is functional. The following applies: read-out: EC50_Mean.

In assay [4] the target is T1, Corticotropin-releasing factor receptor 2/Corticotropin-releasing factor-binding protein. The experiment in a line: Dose Response confirmation of uHTS hits for small molecule antagonists of the CRF-binding protein and CRF-R2 receptor complex. In kind it is functional. The following applies: read-out: IC50_Mean.
For assay [5], the target named is T2, Fatty acid synthase (Homo sapiens, UniProt P49327). The experiment in a line: FAS thioesterase domain inhibitors, dose response, biochemical, kinetic fluorescence intensity (AID 624326).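 Also: rate of fluorescence rise from hydrolysis of a fluorogenic O-methyl fluorescein ester substrate.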 In kind it is functional.
T2 sequence (P49327 whole entry, the tested form may be a part): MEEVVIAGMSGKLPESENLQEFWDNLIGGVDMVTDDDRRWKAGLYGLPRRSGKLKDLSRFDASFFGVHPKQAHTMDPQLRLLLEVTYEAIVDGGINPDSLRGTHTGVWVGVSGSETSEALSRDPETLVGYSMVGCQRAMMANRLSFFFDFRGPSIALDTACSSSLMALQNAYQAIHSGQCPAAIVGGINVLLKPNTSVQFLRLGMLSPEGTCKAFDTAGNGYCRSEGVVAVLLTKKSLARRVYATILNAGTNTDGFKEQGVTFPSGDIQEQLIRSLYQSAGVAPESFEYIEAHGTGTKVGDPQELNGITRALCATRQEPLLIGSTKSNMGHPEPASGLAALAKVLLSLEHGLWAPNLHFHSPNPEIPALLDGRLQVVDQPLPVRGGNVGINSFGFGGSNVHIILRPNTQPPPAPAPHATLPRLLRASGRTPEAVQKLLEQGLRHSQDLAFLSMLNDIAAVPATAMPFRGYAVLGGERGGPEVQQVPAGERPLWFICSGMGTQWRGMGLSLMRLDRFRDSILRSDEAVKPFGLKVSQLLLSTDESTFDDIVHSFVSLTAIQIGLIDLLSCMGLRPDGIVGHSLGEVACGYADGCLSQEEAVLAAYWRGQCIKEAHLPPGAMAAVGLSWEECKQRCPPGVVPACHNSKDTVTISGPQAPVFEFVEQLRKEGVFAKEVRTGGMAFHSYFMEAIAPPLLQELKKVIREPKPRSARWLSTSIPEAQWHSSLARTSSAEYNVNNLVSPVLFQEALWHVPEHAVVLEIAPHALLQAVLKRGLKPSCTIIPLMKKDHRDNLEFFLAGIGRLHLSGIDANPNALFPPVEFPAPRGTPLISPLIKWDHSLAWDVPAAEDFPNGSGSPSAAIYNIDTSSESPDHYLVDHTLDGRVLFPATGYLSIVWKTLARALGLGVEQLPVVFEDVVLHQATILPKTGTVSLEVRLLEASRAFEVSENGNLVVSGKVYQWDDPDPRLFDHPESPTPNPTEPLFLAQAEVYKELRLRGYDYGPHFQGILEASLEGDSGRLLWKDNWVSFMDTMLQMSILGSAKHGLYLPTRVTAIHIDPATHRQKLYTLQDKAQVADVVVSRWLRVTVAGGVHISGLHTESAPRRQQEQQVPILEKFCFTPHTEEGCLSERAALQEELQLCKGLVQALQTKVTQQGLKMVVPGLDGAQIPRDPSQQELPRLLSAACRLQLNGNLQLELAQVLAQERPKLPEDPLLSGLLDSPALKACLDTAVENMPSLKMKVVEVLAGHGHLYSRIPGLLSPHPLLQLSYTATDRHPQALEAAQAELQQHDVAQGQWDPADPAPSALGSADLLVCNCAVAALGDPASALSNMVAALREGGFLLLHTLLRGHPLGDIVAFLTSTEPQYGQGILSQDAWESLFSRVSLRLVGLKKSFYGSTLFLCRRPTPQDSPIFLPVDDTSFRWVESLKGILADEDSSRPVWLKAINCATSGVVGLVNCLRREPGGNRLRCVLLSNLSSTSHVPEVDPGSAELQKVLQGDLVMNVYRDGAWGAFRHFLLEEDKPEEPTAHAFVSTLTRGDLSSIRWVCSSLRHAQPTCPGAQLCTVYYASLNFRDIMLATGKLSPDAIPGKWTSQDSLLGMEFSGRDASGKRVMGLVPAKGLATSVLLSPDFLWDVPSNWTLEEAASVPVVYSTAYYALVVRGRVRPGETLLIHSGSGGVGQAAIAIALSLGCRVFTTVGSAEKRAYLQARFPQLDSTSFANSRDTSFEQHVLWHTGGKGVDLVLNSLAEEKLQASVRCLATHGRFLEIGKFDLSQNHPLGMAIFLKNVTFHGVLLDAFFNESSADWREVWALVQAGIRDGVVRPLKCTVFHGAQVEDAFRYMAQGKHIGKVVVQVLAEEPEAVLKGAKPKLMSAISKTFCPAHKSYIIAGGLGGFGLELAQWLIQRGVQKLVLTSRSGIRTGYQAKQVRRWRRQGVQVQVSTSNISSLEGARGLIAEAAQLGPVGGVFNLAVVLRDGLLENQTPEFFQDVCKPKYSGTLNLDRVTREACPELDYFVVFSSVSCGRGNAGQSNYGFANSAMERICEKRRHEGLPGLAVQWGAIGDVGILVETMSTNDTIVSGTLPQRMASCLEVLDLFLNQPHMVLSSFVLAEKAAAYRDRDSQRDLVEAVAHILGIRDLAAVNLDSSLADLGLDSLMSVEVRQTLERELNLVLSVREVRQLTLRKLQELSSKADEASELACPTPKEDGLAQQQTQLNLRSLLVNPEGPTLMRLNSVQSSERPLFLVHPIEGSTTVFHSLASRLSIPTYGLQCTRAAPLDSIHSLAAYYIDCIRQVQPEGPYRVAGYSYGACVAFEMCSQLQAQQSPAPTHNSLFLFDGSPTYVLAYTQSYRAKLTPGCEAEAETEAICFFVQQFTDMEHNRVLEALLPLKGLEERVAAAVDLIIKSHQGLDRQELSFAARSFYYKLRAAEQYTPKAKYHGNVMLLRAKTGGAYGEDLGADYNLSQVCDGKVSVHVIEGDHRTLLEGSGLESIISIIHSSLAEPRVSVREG
The target of assay [6] is T2, Fatty acid synthase. Nature of the assay: FAS thioesterase domain inhibitors, dose response, biochemical, endpoint fluorescence intensity, uHTS hits (AID 624327).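 Also: fluorescence from hydrolysis of an O-methyl fluorescein acyl ester substrate by the enzyme.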 In kind it is functional.
Assay [7] addresses T3, Replicative DNA helicase DnaB (Mycobacterium tuberculosis, UniProt P9WMR3).
T3 sequence (P9WMR3 whole entry): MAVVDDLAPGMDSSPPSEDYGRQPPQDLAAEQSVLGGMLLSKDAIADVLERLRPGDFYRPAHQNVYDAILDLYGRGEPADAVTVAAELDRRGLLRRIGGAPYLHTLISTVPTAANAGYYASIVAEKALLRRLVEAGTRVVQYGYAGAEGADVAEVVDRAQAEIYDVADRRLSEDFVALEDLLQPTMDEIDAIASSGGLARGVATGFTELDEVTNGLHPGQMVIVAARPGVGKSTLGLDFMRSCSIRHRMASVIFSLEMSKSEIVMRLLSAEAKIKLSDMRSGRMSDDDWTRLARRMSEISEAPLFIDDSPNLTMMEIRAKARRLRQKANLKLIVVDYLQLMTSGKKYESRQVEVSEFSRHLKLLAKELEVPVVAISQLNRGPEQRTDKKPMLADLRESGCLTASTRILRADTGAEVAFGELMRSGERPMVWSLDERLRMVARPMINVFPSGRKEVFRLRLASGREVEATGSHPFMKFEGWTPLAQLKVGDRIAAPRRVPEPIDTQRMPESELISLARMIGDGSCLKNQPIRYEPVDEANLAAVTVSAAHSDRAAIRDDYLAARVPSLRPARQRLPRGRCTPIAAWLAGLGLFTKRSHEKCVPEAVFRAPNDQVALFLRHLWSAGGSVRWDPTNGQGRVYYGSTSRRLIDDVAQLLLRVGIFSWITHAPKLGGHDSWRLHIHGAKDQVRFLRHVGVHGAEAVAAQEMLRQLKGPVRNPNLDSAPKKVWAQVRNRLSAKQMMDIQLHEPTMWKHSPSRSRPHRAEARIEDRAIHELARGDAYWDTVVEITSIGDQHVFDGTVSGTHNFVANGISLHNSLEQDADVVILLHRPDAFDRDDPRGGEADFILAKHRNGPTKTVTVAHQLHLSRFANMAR
Nature of the assay: DnaB intein splicing inhibitors, dose response, biochemical, cell-free fluorescence (AID 449749). In kind it is functional.

Another assay deals with T4, Protein RecA (Mycobacterium tuberculosis, UniProt P9WHJ3).
T4 sequence (P9WHJ3 whole entry): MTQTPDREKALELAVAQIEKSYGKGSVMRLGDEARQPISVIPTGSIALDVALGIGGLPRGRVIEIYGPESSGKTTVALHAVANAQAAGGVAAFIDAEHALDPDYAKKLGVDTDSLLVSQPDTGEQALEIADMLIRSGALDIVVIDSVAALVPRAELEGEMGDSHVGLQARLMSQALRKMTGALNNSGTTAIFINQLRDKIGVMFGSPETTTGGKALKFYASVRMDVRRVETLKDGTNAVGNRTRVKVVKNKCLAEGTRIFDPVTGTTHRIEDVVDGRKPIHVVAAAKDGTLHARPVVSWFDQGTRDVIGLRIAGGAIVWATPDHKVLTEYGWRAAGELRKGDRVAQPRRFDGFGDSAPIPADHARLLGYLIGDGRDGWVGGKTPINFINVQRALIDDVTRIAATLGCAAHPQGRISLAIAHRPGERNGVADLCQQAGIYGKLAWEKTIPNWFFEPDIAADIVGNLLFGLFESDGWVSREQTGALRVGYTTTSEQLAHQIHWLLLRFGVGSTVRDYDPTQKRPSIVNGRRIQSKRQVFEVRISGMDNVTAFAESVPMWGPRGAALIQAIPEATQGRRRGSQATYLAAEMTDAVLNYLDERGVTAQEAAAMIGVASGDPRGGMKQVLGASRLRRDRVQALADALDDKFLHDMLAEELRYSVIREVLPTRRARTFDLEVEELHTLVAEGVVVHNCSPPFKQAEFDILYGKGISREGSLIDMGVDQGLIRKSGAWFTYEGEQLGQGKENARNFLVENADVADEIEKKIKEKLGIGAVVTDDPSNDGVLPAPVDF
The experiment in a line: Fluorescence Cell-Free Homogeneous Dose Retest to Identify Inhibitors of RecA-Intein Splicing Activity. [Related pubchem assays (depositor defined):AID2097, AID2223, AID489010, AID492950]. In kind it is functional.

The nature of assay [8]: Luminescence Cell-Based Dose Retest to Confirm Inhibitors of Cancer Stem Cells. [Related pubchem assays (depositor defined):AID2717, AID2721]. In kind it is functional. To be noted: Homo sapiens.
For another assay, the target named is Paired box protein Pax-8 (Homo sapiens, UniProt Q06710). Nature of the assay: inhibitors of PAX8-driven TPO luciferase reporter, dose response, RMG-I cells, cherry-pick (AID 687027).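 Also: luciferase reporter driven by Pax8 target thyroperoxidase promoter measured by SteadyGlo luminescence.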 In kind it is functional, cell-based. (In a reporter assay the amount or activity of a reporter protein is the signal.)
Chain of Paired box protein Pax-8 (Q06710 whole entry): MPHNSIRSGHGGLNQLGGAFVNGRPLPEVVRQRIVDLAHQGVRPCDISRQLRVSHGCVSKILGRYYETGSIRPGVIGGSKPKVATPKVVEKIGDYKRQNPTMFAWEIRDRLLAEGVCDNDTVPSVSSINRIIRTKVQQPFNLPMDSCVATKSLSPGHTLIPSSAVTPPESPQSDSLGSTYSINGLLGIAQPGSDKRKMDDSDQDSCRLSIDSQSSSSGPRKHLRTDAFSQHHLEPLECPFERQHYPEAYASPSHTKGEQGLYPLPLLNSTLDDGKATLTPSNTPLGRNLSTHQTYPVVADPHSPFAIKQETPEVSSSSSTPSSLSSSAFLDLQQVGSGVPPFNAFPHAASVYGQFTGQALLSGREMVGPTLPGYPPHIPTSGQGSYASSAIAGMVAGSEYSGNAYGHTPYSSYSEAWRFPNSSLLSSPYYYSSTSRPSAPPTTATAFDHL
Assay [9] can be described thus: Luminescence Cell-Based Dose Response HTS to Identify Activators of Luciferase Translation or Activity in H4 […] Cells. [Related pubchem assays: 1829 (Project Summary), 1814 (Primary HTS)]. In kind it is functional.
Assay [10] in a line: inhibitors of intracellular T. cruzi replication, confirmation, NIH3T3 host cells, beta-gal luminescence (AID 2044).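 Also: intracellular parasites grown in NIH/3T3 mouse fibroblasts as host cells; luminescent beta-galactosidase reporter signal from transgenic T. cruzi replicating inside host cells; inhibitors lower the luminescence signal.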 In kind it is functional, cell-based.
Assay [11] is described as follows: cytotoxicity toward NIH3T3 fibroblasts, dose response, counter-screen, cell-based, ATP luminescence, mouse fibroblasts (AID 2010).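 Also: cells exposed to compound for about 90 hours before reading.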 In kind it is functional. For orientation: The purpose of a counterscreen is to sort out artefacts and off-target activity.
The subject of a further assay is H4. Nature of the assay: Luminescence Cell-Based Dose Response HTS to Identify Activators of 5'UTR Stem-Loop Driven Prion Protein mRNA Translation in H4 Neuroglioblastoma Cells. [Related pubchem assays: 1829 (Project Summary), 1814 (Primary HTS)]. In kind it is functional. The following applies: Homo sapiens.
A further assay relates to INS1. Nature of the assay: beta cell apoptosis inhibitors, cytokine rescue, dose response, luminescence, retest (AID 449756).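 Also: cell death triggered by IL-1 beta plus TNF-alpha plus IFN-gamma mixture; protective hits raise ATP signal compared with cytokine alone wells.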 In kind it is functional, cell-based. To be noted: Rattus norvegicus.

We go through 28 compounds from ChEMBL document CHEMBL1201862, “PubChem BioAssay data set” (2004).

As a reminder, the AC50 is the concentration giving half of the maximal activity seen.

The source made the active and inactive calls. Rule as the data show it, for most assays here: actives have a measured EC50 and inactives only a lower limit.

`Nc1ccc(C(=O)Nc2ccc3[nH]c(-c4ccncc4)nc3c2)cc1`: the EC50 in the assay “cells [1]” is 49.5 µM (active); in “cells [2]” it was > 350 µM (not active).
`COCCn1c(SCC(=O)c2ccc3c(c2)OCCO3)nnc1-c1ccco1`: the EC50 in [3] is > 53 µM (inactive). Also, the IC50 in assay [4] was > 47.1 µM (inactive).
As to `CC(C=Cc1ccccc1)=NNS(=O)(=O)c1ccc([N+](=O)[O-])cc1`, the IC50 was 6.23 µM (active) on Fatty acid synthase [5] and 9.36 µM (active) at Fatty acid synthase [6].
On the same counts, the results for `Cc1nc2scc(-c3ccccc3)c2c(=O)o1` are 80 µM (inactive) and 5.75 µM (active).
`Cc1ccc(NC(=O)c2cc(NC(=O)/C=C\C(=O)O)ccc2N2CCCCC2)cc1`: the AC50 in assay [7] is 14.4 µM (active). The results for the EC50 (in assay [3]; on Protein RecA) were > 53 µM (inactive) and 9.32 µM (active), respectively. The IC50 in assay [4] was > 47.1 µM (inactive).
As for `Cc1ccc(C(=O)N/C(=C\c2cn(S(=O)(=O)N(C)C)c3ccccc23)C(=O)N2CCCC2)cc1`, the IC50 is 1.23 µM (active) at Fatty acid synthase [5] and 1.58 µM (active) on Fatty acid synthase [6].
`O=C(CN1CCN(S(=O)(=O)c2ccc(Cl)c(C(F)(F)F)c2)CC1)NC(=O)NC1CCCCC1`: the IC50 at Fatty acid synthase [5] is 37.1 µM (inactive); on Fatty acid synthase [6], 3.5 µM (active).
Take `CCc1nnc(S)n1/N=C/c1ccc(-c2ccc(Br)cc2)o1`: the EC50 in “cells [1]” and in the assay “cells [2]” was > 350 µM (not active) throughout.
For the compound `CC(=O)Cn1c(=O)c2c(nc3n2CCCN3Cc2ccccc2)n(C)c1=O`, the EC50 in “cells [1]” and in “cells [2]” was > 350 µM (not active) throughout.
Turning to `CCn1c(=O)c(C(=O)NCc2ccccc2OC)c(O)c2ccccc21`, in assay [8], the AC50 was 1.26 µM (active).
On to `COc1ccc(Nc2nc(-c3ccccc3O)nc3ccccc23)cc1`, for which, in [8], the AC50 was 2.75 µM (active).
Turning to `NC(Cc1ccccc1Sc1ccccc1)=NO`, the EC50 in assay [3] was > 53 µM (inactive). Further, the IC50 in [4] is > 47.1 µM (inactive).
For the compound `Cc1ccc(NC(=O)Nc2cccc(F)c2)nc1`, the EC50 was > 350 µM (not active) in the assay “cells [1]” and 11.8 µM (active) in the assay “cells [2]”.
With `COc1cccc(CNC(=O)C2CCC(=O)N(CC3CCCCC3)C2)c1OC` (configuration not stated), in assay [3], the EC50 was > 53 µM (inactive). Moreover, the IC50 in assay [4] was > 47.1 µM (inactive).
On to `COc1cc2c(c(OC)c1OC)-c1ccc(SC)c(=O)cc1C(NC=O)CC2` (configuration not stated), for which the AC50 at Paired box protein Pax-8 was < 0.26 µM (active).
For `CCCCn1c(=O)c2c(=O)cc(O)oc2c2ccccc21`, the EC50 in the assay “cells [1]” and in the assay “cells [2]” was > 350 µM (not active) each time.
On to `COc1ccc2ccccc2c1CNCCCN1CCOCC1`, for which the EC50 in assay [3] was > 53 µM (inactive). Further, the IC50 in assay [4] was > 47.1 µM (inactive).
On the same counts, the results for `COc1ccc(S(=O)(=O)N2CCOCC2)cc1NC(=O)CC1CC2CCC1C2` (configuration not stated) are > 53 µM (inactive) and > 47.1 µM (inactive).
In the same order, the values of `CCN1CCN(C(=O)C2=CC(c3ccc(OC)cc3)=NS(=O)(=O)N2C)CC1` are > 53 µM (inactive) and > 47.1 µM (inactive).
With `ON=C1c2cc(OCCN3CCCCC3)ccc2-c2ccc(OCCN3CCCCC3)cc21`, the EC50 in assay [9] is > 120 µM (not active); in assay [10], 1.43 µM (active); in assay [11], > 60 µM (not active); in the assay on H4, > 120 µM (not active); in “cells [1]”, > 350 µM (not active); in “cells [2]”, > 350 µM (not active).
With `COc1ccc(/C=C/C(=O)c2ccc([N+](=O)[O-])o2)cc1`, the AC50 in assay [8] is 1.31 µM (active); in the assay with INS1, 6.75 µM (active).
As to `COc1ccc(C(=O)N2CCCCCC2)cc1S(=O)(=O)N1CCOCC1`, the EC50 in the assay “cells [1]” and in the assay “cells [2]” was > 350 µM (not active) throughout.
Regarding `COc1cc(CCC(=O)NC2(C)CCS(=O)(=O)C2)cc(OC)c1OC` (configuration not stated), the EC50 in assay [3] is > 53 µM (inactive). Moreover, in assay [4], the IC50 is > 47.1 µM (inactive).
In the case of `Cc1ccc(NC(=O)Cn2cnc3c(=O)n(C)c(=O)n(C)c32)c(C)c1`, the EC50 in “cells [1]” and in “cells [2]” was > 350 µM (not active) each time.
Consider `C[C@@H]1CCCCO[C@H](CN(C)C(=O)Nc2ccc(C(F)(F)F)cc2)[C@@H](C)CN([C@@H](C)CO)C(=O)c2cc(NS(=O)(=O)c3ccccc3)ccc2O1`, for which the AC50 on Paired box protein Pax-8 was 3.24 µM (active).
As to `COc1cccc(C(=O)C2CCCN(Cc3ccc4nsnc4c3)C2)c1` (configuration not stated), the EC50 in the assay “cells [1]” and in the assay “cells [2]” was > 350 µM (not active) in each case.
With `COc1ccc(CCNC(=O)COC(=O)CCC(=O)c2ccc(F)cc2)cc1OC`, the EC50 in the assay “cells [1]” and in “cells [2]” was > 350 µM (not active) throughout.
Take `C[C@@H]1CN([C@@H](C)CO)C(=O)c2cc(NC(=O)Nc3cccc4ccccc34)ccc2O[C@@H]1CN(C)Cc1ccc2c(c1)OCO2`: at Paired box protein Pax-8, the AC50 is 18.5 µM (active).
